According to US9994528B2, “Certain amino-pyridines and amino-triazines, compositions thereof, and methods for their use” (Cytokinetics, Inc., priority 2010, dated 2018):

test system: rabbit skeletal myofibrils (approximately 90% fast fibers); assay: Activation of fast skeletal myofibrils (PUMA coupled-enzyme ATPase assay); format: biochemical; details: AC1.4 = concentration at which the compound increased the enzymatic activity by 40%; myofibril suspension at calcium level pCa25; PM12 buffer pH 6.8
Procedure, shortened: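 Fast skeletal myofibrils from rabbit psoas muscle (roughly 90% fast fibers) were homogenized, washed with Triton X-100 to strip membranes, and frozen in 10% sucrose at −80° C. Their calcium-regulated ATPase activity was measured at pCa25 in PM12 buffer (12 mM Pipes, 2 mM MgCl2, 1 mM DTT, pH 6.8). A pyruvate kinase/lactate dehydrogenase system coupled ADP regeneration to NADH oxidation, read at 340 nm.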

| Mean AC1.4 | SMILES |
| --- | --- |
| B (B=1-10 uM) | CNC(=O)c1ccc(F)c(-c2cnc(NCC3(c4ncccc4Cl)CC(F)(F)C3)nn2)c1 [{3-[3-({[1-(3-chloro(2-pyridyl))-3,3-difluorocyclobulyl]methyl}amino)(1,2,4-triazin-6-yl)]-4-fluorophenyl}-N-methylcarboxamide] |
| A (A=<1 uM) | CNC(=O)c1ccc(F)c(-c2cnc(NC[C@]3(c4ncccc4Cl)C[C@H](F)C3)nn2)c1 [{3-[3-({[1-(3-chloro(2-pyridyl))-3-fluorocyclobutyl]methyl}amino)(1,2,4-triazin-6-yl)]-4-fluorophenyl}-N-methylcarboxamide] |
| B (B=1-10 uM) | CNC(=O)c1cccc(-c2cnc(NC[C@]3(c4ncccc4Cl)C[C@H](F)C3)nn2)c1 [{3-[3-({[1-(3-chloro(2-pyridyl))-3-fluorocyclobutyl]methyl}amino)(1,2,4-triazin-6-yl)]phenyl}-N-methylcarboxamide] |
| B (B=1-10 uM) | CNC(=O)c1cccc(-c2cnc(NC[C@]3(c4ncccc4F)C[C@H](F)C3)nn2)c1 [{3-[3-({[3-fluoro-1-(3-fluoro(2-pyridyl))cyclobulyl]methyl}amino)(1,2,4-triazin-6-yl)]phenyl}-N-methylcarboxamide] |
| A (A=<1 uM) | CNC(=O)c1ccc(O)c(-c2cnc(NC[C@]3(c4ncccc4F)C[C@H](F)C3)nn2)c1 [{3-[3-({[3-fluoro-1-(3-fluoro(2-pyridyl))cyclobutyl]methyl}amino)(1,2,4-triazin-6-yl)]-4-hydroxyphenyl}-N-methylcarboxamide] |
| B (B=1-10 uM) | CNC(=O)c1ccc(F)c(-c2cnc(NC[C@]3(c4ncccc4F)C[C@H](F)C3)nn2)c1 [{4-fluoro-3-[3-({[3-fluoro-1-(3-fluoro(2-pyridyl))cyclobutyl]methyl}amino)(1,2,4-triazin-6-yl)]phenyl}-N-methylcarboxamide] |
| B (B=1-10 uM) | CNC(=O)c1ccc(F)c(-c2cnc(NCC3(c4ncccc4F)CCC3)nn2)c1 [{4-fluoro-3-[3-({[(3-fluoro(2-pyridyl))cyclobutyl]methyl}amino)(1,2,4-triazin-6-yl)]phenyl}-N-methylcarboxamide] |
| D (D=>20 uM) | CC(C)(Nc1ncc(-c2ncc(CN)s2)nn1)c1ncccc1Cl [{6-[5-(aminomethyl)(1,3-thiazol-2-yl)](1,2,4-triazin-3-yl)}[1-(3-chloro(2-pyridyl))-isopropyl]amine] |
| B (B=1-10 uM) | NCc1cnc(-c2cnc(NC[C@]3(c4ncccc4F)C[C@H](F)C3)nn2)s1 [{6-[5-(aminomethyl)(1,3-thiazol-2-yl)](1,2,4-triazin-3-yl)}{[3-fluoro-1-(3-fluoro(2-pyridyl))cyclobutyl]methyl}amine] |
| D (D=>20 uM) | CC(C)(Nc1ncc(-c2cc(CN)ccc2F)nn1)c1ncccc1F [{6-[5-(aminomethyl-2-fluorophenyl](1,2,4-triazin-3-yl)}[1-(3-fluoro(2-pyridyl))-isopropyl]amine] |
